Laboratory results published in ChEMBL document CHEMBL1201862, “PubChem BioAssay data set” (2004).
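Interpolation was linear, between the two tested concentrations surrounding the appropriate level; five concentrations were tested over 48 hours in 96-well plates. GI50 = concentration required for 50% inhibition of growth.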 Activity calls are given as the source filed them. No stated cut-off is given here; in the data, active = GI50 up to about 1.1 µM and inactive = higher. *1 amine or outer side, *2 acyl side, *3 side chain or, on linkers, in order; H or OH if unused. Where a SMILES comes first, the peptide text is derived from it. Bridges are numbered along the chain shown (N, C = ends). [ ]: non-standard residue; d: D form. The star is where a group is joined. X36 = O=C(C(CCCCNO[*:3])N[*:1])[*:2]; Fmoc = O=C(OCC1c2ccccc2-c2ccccc21)*

How the values were obtained:
Assay in all cases: inhibition of tumour cell growth, NCI panel, 48 h
[1] = test system: TK-10
[2] = test system: BT-549
[3] = test system: KM12
[4] = test system: M14
[5] = test system: SR
[6] = test system: ACHN
[7] = test system: NCI-H226
[8] = test system: SK-MEL-5
[9] = test system: NCI-H460
[10] = test system: Hs-578T
[11] = test system: T47D
[12] = test system: A498
[13] = test system: MOLT-4
[14] = test system: OVCAR-8
[15] = test system: UACC-62
[16] = test system: HOP-92
[17] = test system: UO-31
[18] = test system: NCI-H23
[19] = test system: NCI-H522
[20] = test system: OVCAR-4

Measured: GI50

CCOC(=O)c1cn(CC)c2cc3c(cc2c1=O)CCS3(=O)=O
inactive: [1] > 100 µM | [2] > 100 µM | [3] > 100 µM | [4] > 100 µM | [5] > 100 µM | [6] > 100 µM | [7] > 100 µM | [8] > 100 µM | [9] > 100 µM | [10] > 100 µM | [11] > 100 µM | [12] > 100 µM | [13] > 100 µM | [14] > 100 µM | [15] > 100 µM | [16] > 100 µM | [17] > 100 µM | [18] > 100 µM

CN(C)CCOc1ccc([N+](=O)[O-])c2cccnc12
inactive: [1] > 100 µM | [2] > 100 µM | [3] > 100 µM | [4] > 100 µM | [5] > 100 µM | [6] > 100 µM | [7] > 100 µM | [8] > 100 µM | [9] > 100 µM | [10] > 100 µM | [11] > 100 µM | [12] > 100 µM | [19] 61.9 µM | [13] 60.8 µM | [14] > 100 µM | [15] > 100 µM | [17] > 100 µM | [18] > 100 µM

[O-][S+](c1ccccc1)c1ccc(/N=N/O)nc1 (centres undefined)
inactive: [1] > 100 µM | [2] > 100 µM | [3] > 100 µM | [4] > 100 µM | [5] > 100 µM | [6] > 100 µM | [20] > 100 µM | [7] 69.8 µM | [8] > 100 µM | [9] > 100 µM | [10] > 100 µM | [11] 82.6 µM | [12] > 100 µM | [19] > 100 µM | [13] > 100 µM | [14] > 100 µM | [15] > 100 µM | [17] > 100 µM | [18] > 100 µM

NC(=O)CNC(=O)C1CCCN1C(=O)C1CCCCNOC(=O)CCC(NC(=O)OCC2c3ccccc3-c3ccccc32)C(=O)NC(Cc2c[nH]c3ccccc23)C(=O)N1 (centres undefined) (Fmoc-EW[X36]PG-NH2; ester 1-3; configuration not given here)
inactive: [1] > 100 µM | [2] > 100 µM | [3] > 100 µM | [4] 54.3 µM | [5] > 100 µM | [6] > 100 µM | [20] > 100 µM | [7] > 100 µM | [8] > 100 µM | [9] > 100 µM | [10] > 100 µM | [11] > 100 µM | [19] > 100 µM | [13] > 100 µM | [14] > 100 µM | [15] > 100 µM | [16] > 100 µM | [17] 24.9 µM | [18] > 100 µM
